In a melting point compilation (Tetko et al.; mined from patent text by program, amines drawn as free bases though some values may be those of a salt):

| melting point | SMILES |
| --- | --- |
| 196 °C | N#Cc1c(N2CCN(C(=O)c3ccco3)CC2)c2cc(Cl)cnc2n(Cc2ccccc2)c1=O |
| 156 to 157 °C | N#CCCN1CCc2c3n(c4ccccc24)C(=O)CCC31 (centres undefined) |
| 206 °C | O=C1NC(=O)C2(c3ccc4ncccc4n3)C=CC=CC12 (centres undefined) |
| 214 to 217 °C | CC(C)c1n[nH]c2c(NCc3ccccc3O)ncnc12 |
| 256 to 259 °C | O=c1[nH]c2ccccc2cc1CN1CCN(c2ccc(Cl)cc2)CC1 |
| 264 to 266 °C | Cc1ccc2c(c1)Oc1ccc([N+](=O)[O-])cc1C(=O)N2 |
| 97 to 98 °C | CC(C)(C)OC(=O)N[C@H]1CCC(=O)C1 |
| 204 °C | O=C(NC(=O)c1c(Cl)cccc1Cl)Nc1cc(Br)c(Br)cc1C(F)(F)F |
| 136 °C | C[C@@H](C(=O)O)N(C)C(=O)c1cc(C(F)(F)F)cc([N+](=O)[O-])c1N |
| 151 to 152 °C | CCOc1nn(-c2ccc(C(F)(F)F)cn2)cc1CCCOc1cc(CC(=O)O)n(C)n1 |
| 126 to 128 °C | COc1cc(C(=O)N(C(C)C)C2CCCCC2)ccc1Oc1cc(OC)c(OC)c(OC)c1 |
| 172 to 174 °C | CC(=O)NC[C@H]1CN(c2ccc(N3CCC4(CC3)CC4(C#N)C#N)cc2)C(=O)O1 |
| 65 to 66 °C | COCC1CN(c2cccnc2)C(=O)O1 (racemic) |
| 188 to 192 °C | NC(=O)N(O)CCNC(=O)c1csc(-c2ccccc2)n1 |
| 206 to 208 °C | Cc1nc(NC(=O)c2ccccc2)sc1C(=O)NCc1ccc(F)cc1 |
| 217 to 222 °C | COC(=O)CCc1cc2cc(Cl)ccc2n1S(=O)(=O)c1ccc2nc(N)sc2c1 |
| 86 °C | CCOCCOc1cc(-n2nc(C)c(Cl)c2C)c(F)cc1C#N |
| 261 to 263 °C | CC1=C(C#N)S(=O)(=O)c2ccc(F)cc2N1 |
| 165 to 178 °C | Cc1ccc(S(=O)(=O)N2CC[C@@H](C(C#N)(c3ccccc3)c3ccccc3)C2)cc1 |

| melting point | SMILES |
| --- | --- |
| 93 to 94 °C | COc1ccc(C(=O)c2cc3ccccc3o2)cc1 |
| 207 to 209 °C | C=CCOC(=O)C(CCn1c(=O)c2c(ncn2C)n(C)c1=O)N(C)S(=O)(=O)c1ccc(Oc2ccccc2)cc1 (centres undefined) |
| 224 to 226 °C | O=C1CCC(N2Cc3c(OCc4ccc(CN5CCN(c6ccccn6)C(=O)C5)cc4)cccc3C2=O)C(=O)N1 (centres undefined) |
| 115 to 117 °C | CCOC(=O)Cc1sc(Sc2cc3ccccc3c(Cl)n2)nc1C |
| 229 °C | CS(=O)(=O)c1ccc(-c2ccc(N=[N+]=[N-])nc2-c2ccc(F)cc2)cc1 |
| 221 to 222 °C | COc1cc(N)cc(OC)c1-c1ccc(C[C@H](NC(=O)c2c(Cl)cccc2Cl)C(=O)O)cc1 |
| 186 to 188 °C | O=C(c1cc2ccc3[nH]ccc3c2[nH]1)N1CCC(Cc2ccccc2)CC1 |
| 124 to 125 °C | CCCCCCOc1ccc(Nc2cc(Nc3ccc4c(c3)OCCO4)ncc2F)cc1 |
| 187 °C | O=C(O)Cc1ccc(-n2cc(Br)cn2)cc1 |
| 112 °C | CC1SC(c2cccnc2)N(c2ccccc2F)C1=O (centres undefined) |
| 194 to 196 °C | O=c1c(CCCc2ccncc2)cc2cccnc2n1-c1ccc2nsnc2c1 |
| 224 °C | N=C(NO)c1nc(-c2ccc(C(F)(F)F)cc2)cc(C(F)(F)F)n1 |
| 110 to 111 °C | CC(=O)NCC1CN(Cc2ccccc2)CCO1 (centres undefined) |
| 150 to 152 °C | CCCCOC(=O)NNc1n[nH]c2cc(Cl)ccc12 |
| 198 to 199 °C | CSc1cc2n(c(=O)n1)C(c1ccccc1)N=C2 (centres undefined) |
| 91 to 93 °C | CCc1ccc(Nc2c(C(=O)NOC(CO)CO)ccc(F)c2F)c(F)c1 |
| 101 to 103 °C | CCc1c(Cc2cc(C)cc(C)c2)n(COCCCCO)c(=O)[nH]c1=O |
| 151 to 152 °C | IC#CCn1c2ccccc2c2ccccc21 |

| SMILES | melting point |
| --- | --- |
| CC(C)N(Cc1cnc(-c2ncn3c2CN(C)C(=O)c2cc(F)ccc2-3)o1)C(C)C | 176 to 178 °C |
| O=C(C=Cc1ccccc1)N1CCc2c([nH]c3ccccc23)C12CCC(c1cccc(F)c1)(N1CCC1)CC2 (centres undefined) | 120 to 126 °C |
